Experimental data taken from patent US8415507B2 (priority 2010, dated 2013).
Each block holds one compound with its values, some of them ahead of it.

Assays:
[1] = Lopez-Nicolas 2009; cited from earlier work
[2] = in vivo; cited from earlier work
[3] = format: physicochemical
Procedure: Intrinsic dissolution in 900 mL water at ambient conditions was also attempted. […] Therefore, a concentration vs. time and intrinsic dissolution rate value were unobtainable at these conditions.

[4] = Relative humidity stability at ambient temperature, analyzed by XRPD; format: physicochemical
From the text: Upon completion of the duration allowed, the samples were immediately analyzed by XRPD.

[5] = solution supersaturated with respect to pterostilbene; after three days
Procedure: Solubility and concentration measurements were performed using ultraviolet (UV) spectroscopy on a Spectramax Microplate Reader.
Appropriate dilutions with water were made as necessary to maintain absorbance readings within the standard curve. All experiments were repeated three times to evaluate the standard deviation, while particle size was not controlled for any of the experiments.
Aliquots were centrifuged; supernatant was extracted, and appropriate dilutions were made to maintain absorbance readings within the standard curve. […] All experiments were repeated three times to evaluate the standard deviation, while particle size was not controlled for any of the experiments.

Compound: COc1cc(/C=C/c2ccc(O)cc2)cc(OC)c1 [pterostilbene, trans-3,5-dimethoxy-4′-hydroxystilbene]
Solubility in water [1]: poor solubility in water
Bioavailability [2]: poor bioavailability

XRPD result in intrinsic dissolution ([3]; 900 mL water at ambient conditions, after 30 minutes): crystalline pterostilbene
XRPD result in powder dissolution ([3]; slurrying in water at ambient, after 5 minutes): crystalline pterostilbene
Compound: pterostilbene:glutaric acid [cocrystal 3]

Compound: Cn1c(=O)c2c(ncn2C)n(C)c1=O [caffeine, reference compound]
Conversion to hydrate at 75% RH ([4]; 75% RH, up to four weeks): does not display signs of conversion
Time of partial conversion to hydrate at 94% RH ([4]; 94% RH): between one and three days
Time of conversion to hydrate at 98% RH ([4]; 98% RH): less than one day

Compound: COc1cc(/C=C/c2ccc(O)cc2)cc(OC)c1.Cn1c(=O)c2c(ncn2C)n(C)c1=O [cocrystal 1 (Form I), pterostilbene:caffeine]
Results (form by XRPD) ([4]; additional stress at 98% RH, 1 week (listed after 75% RH, 1 week)): cocrystal 1 (Form I), no caffeine hydrate
Results (form by XRPD) ([4]; additional stress at 98% RH, 4 weeks (listed after 94% RH, 7 days)): cocrystal 1 (Form I), no caffeine hydrate
Results (form by XRPD) ([4]; additional stress at 98% RH, 1 day (listed after 75% RH, 1 day)): cocrystal 1 (Form I), no caffeine hydrate
Results (form by XRPD) ([4]; slurry, 2 days): cocrystal 1 (Form I), no caffeine hydrate
Outcome of slurrying in water [5]: precipitation of pterostilbene
